The values that follow come from a melting point compilation (Tetko et al.; mined from patent text by program, amines drawn as free bases though some values may be those of a salt).

Some results are limits rather than exact numbers.

As for `CC(=O)Nc1ccc(S(=O)c2ccccc2)cc1` (centres undefined), the melting point (in general, the temperature of the solid-liquid transition) is 135 to 137 °C.
Then `Nc1c(-c2cc(Cl)ccc2O)c2c(C(F)(F)F)c(Cl)ccc2[nH]c1=O`, with 139 to 140 °C.
With `CCC(Oc1ccc(F)cc1)C(=O)OC1CC(O)C=C2C=CC(C)C(CCC3CC(O)CC(=O)O3)C21` (mixture of isomers), the melting point was 149 to 150 °C.
The same measure for `CC(=O)N(O)Cc1ccc2c(c1)OCc1ccccc1C2=O`: 65 to 115 °C; for `CCN1c2ncc(CCc3ccnc(C)c3)cc2C(=O)N(C)c2ccc(Cl)nc21`: 94 to 96 °C.
Molecule `COc1ccc(CSc2cc(Cl)ccc2CN(C)C)cc1` showed a melting point of 66 to 68 °C.
The molecule `S=c1[nH]c2cc(Cl)cc(OCCNCc3ccccc3)c2[nH]1` displayed a melting point greater than 250 °C.
Molecule `C=C(Cc1ccc(C=Cc2ccc(CC(=C)C(=O)OCC)cc2)cc1)C(=O)O` came in with a melting point of 123 to 125 °C.
Turning to `CCOP(=O)(OCC)C(CCc1cc(C)nc2cc(OC(=O)c3ccccc3)nn12)P(=O)(OCC)OCC`, the melting point was in the range of 56 to 57 °C.
Then `COc1ccc(CC2=NC(C)(C)CO2)cc1NC(=O)C(C)(C)CCCOc1cc(C)ccc1C`, with 79 to 80 °C; and `Oc1ccc2nc(-c3cccc4ccccc34)oc2c1`, with 185 to 187 °C.
Then `O=C(Nc1ccccc1)OCC1c2ccccc2Oc2ccccc21`, with 180 to 181 °C; and `O=C(Oc1ccc2c(c1Cl)Sc1ccccc1N2)c1ccccc1`, with 203 °C; and `CNC(=O)NN=Cc1ncc([N+](=O)[O-])n1C`, with 221 to 223 °C.
The same measure for `CSC(=C[N+](=O)[O-])NCCSCc1cc(C)c(CN(C)C)s1`: 69 to 71 °C; for `CC(C)(C)OC(=O)N1CC(CCl)c2c1cc(OCc1ccccc1)c1ncccc21` (centres undefined): 178 to 179 °C; for `CCCCc1ccc(NC(=O)CCc2ccccc2)c(=O)n1CC(=O)O`: 132 to 134 °C.
`CCn1cc(CC(=O)O)c(OCCCc2cn(-c3ccc(C(F)(F)F)cn3)nc2C(C)C)n1`: the melting point lay in the range of 99 to 100 °C.
Consider `CC(C)(C)C(O)(CNc1ccc(Cl)c(Cl)c1)Cn1cncn1` (centres undefined), for which the melting point was 132 to 133 °C.
The same measure for `C(=Cc1ccc(-c2cc3cc(-c4ccccc4)ccc3o2)cc1)c1ccc(-c2ccccc2)cc1`: 356 to 358 °C.
Molecule `CCOC(=O)c1c(Cn2cncn2)nc2sc3c(c2c1-c1ccc(OC)c(OC)c1)CCN(C(=O)c1ccccc1)C3` returned a melting point of 193 to 194 °C.
Regarding `CCN(CC)CCn1c(=O)c2cc(OC)c(OC)cc2c2cnc3cc4c(cc3c21)OCO4`, the melting point was in the range of 159 to 160 °C.
As to `c1cnc2ccc(Cn3nnc4ccc(-c5ccc(N6CCCCC6)nc5)nc43)cc2c1`, the melting point lay in the range of 133 to 135 °C.
The same measure for `CCc1ccccc1C(Cc1ccccc1NC(=O)C(C)(C)C)NC` (centres undefined): 80 to 81.5 °C.
Then `CC(C)(CNC(=O)CCCC(=O)O)SN=O`, with 104 to 107 °C.
Take `CCOC(=O)c1ccc(C2CC(=O)N(C)C2C(O)c2ccc(-c3ccccc3)s2)cc1` (centres undefined): the melting point fell in the range of 177 to 179 °C.
For `CC(C)C1COCc2nc3c(N)nc4c(c3n21)CCCC4` (centres undefined), the melting point was in the range of 158 to 160 °C.
`Cc1nc2c(C#N)cnn2c(Cl)c1CCCl` returned a melting point of 143 to 145 °C.
Take `CCOC(=O)Cc1c(C)n(Cc2cccc(OC)c2)c2ccc(OC)cc12`: the melting point was 88 to 90 °C.
`CC/C(=C\CCC(O)(CC)CC)c1cc(COc2ccc(CO)c(CO)c2)cs1` showed a melting point of 63 to 64 °C.
On to `C1=C(c2ccccc2)CCN(C2CC=C(c3ccccn3)CC2)C1` (centres undefined), for which the melting point lay in the range of 143 to 144 °C.
For `c1ccc2c(c1)C1CC2(CC2CN(CC3CC3)CCO2)c2ccccc21` (centres undefined), the melting point was 88 to 90 °C.
Molecule `C=CCN(CC=C)c1nc(NC(=O)C=C)n2oc(=O)nc2n1` returned a melting point of 157 to 161 °C.
`NC(=S)c1cc(Cl)c(Cl)c(Cl)n1` yielded a melting point of 168 to 169 °C.
`CCCCCCCCCCCCn1nnnc1C(C(=O)Nc1c(C(C)C)cccc1C(C)C)c1ccccc1` (centres undefined) displayed a melting point of 113 to 115 °C.
The molecule `Clc1ccc2c(n1)C(c1ccccc1Cl)NCc1nncn1-2` (centres undefined) showed a melting point of 206 to 208 °C.
`Cc1ccc(-c2ccc3c(c2)C=C(C(=O)Nc2ccc(C(=O)C4CCCCN4C(=O)OC(C)(C)C)cc2)CCO3)cc1` (centres undefined) showed a melting point of 223 to 224 °C.
`Cc1ccc(-c2ccc3c(c2)C=C(C(=O)Nc2ccc(CO)cc2)CC3)cc1`: the melting point was in the range of 219 to 220 °C.
The molecule `COc1ccc(N2CCOCC2)c2sc(-c3ncc[nH]3)nc12` came in with a melting point of 228 to 230 °C.
Molecule `CCOC(=O)C1=C(C)NC(=S)N(S(C)(=O)=O)C1c1cccc([N+](=O)[O-])c1` (centres undefined) came in with a melting point of 161 to 163 °C.
`CCCCOc1nc2cccc(C(=O)OC)c2n1Cc1ccccc1-c1ccccc1-c1nnn[nH]1` returned a melting point of 146 to 148 °C.
`Nc1c(Cl)cc2c3c(cccc13)C(=O)N(O)C2=O` yielded a melting point of 354 to 359 °C.
In the case of `Cc1ccc(C=CC(=O)NCCCCN2CCN(C(c3ccccc3)c3ccccc3)CC2)cn1`, the melting point was in the range of 129 to 131 °C.
In turn, `CC(=O)OCC1OC(n2cc(F)c(=O)[nH]c2=O)CC1OC(C)=O` (centres undefined) had a melting point of 151 °C.
Take `CC(=O)Nc1cccc(Nc2ncnc3[nH]cc(C(=O)c4cccc5ccccc45)c23)c1`: the melting point was greater than 300 °C.
With `COc1nnccc1-c1ccccc1OCC(O)CNC(C)(C)C` (centres undefined), the melting point came to 110 °C.
Consider `C#CCN(Cc1cn(C(C)(C)C)nn1)Cc1cn(C(C)(C)C)nn1`, for which the melting point amounted to 126 °C.
With `CCCCOc1ccccc1Nc1ncc(C(=O)O)c(=O)[nH]1`, the melting point fell in the range of 212 to 214 °C.
`COc1ccc(Cn2ccnc2C=Cc2ccc([N+](=O)[O-])o2)cc1` returned a melting point of 151 to 152 °C.
In the case of `Nc1ccc(-c2noc(-c3cnn4c(C(F)(F)F)cc(-c5cccc(C(F)(F)F)c5)nc34)n2)cn1`, the melting point came out at 264 °C.
With `CC(=O)N[C@@H](C)CO[C@H]1CC[C@H](n2cc3ccc(OCCC4CC4)cc3n2)CC1`, the melting point was 98 to 99 °C.
Molecule `CCNC(=O)[C@@H](C[C@H](O)[C@H](CC1CCCCC1)NC(=O)[C@H](Cc1cscn1)NC(=O)OC(C)(C)C)C(C)(C)O` returned a melting point of 189 to 191 °C.
The molecule `C=CCOc1cc(C(=O)OCC)nc2c(CCC)c3oc(C(=O)OCC)cc(=O)c3cc12` registered a melting point of 151 to 153 °C.
The same measure for `O=[N+]([O-])c1cc(Cl)c(Cl)cc1NC1C=CCC1` (centres undefined): 85 to 86 °C; for `COc1cc2c(cc1OC)CN(C(=O)C13CC4CC(CC(C4)C1)C3)CC2`: 151 to 155 °C; for `C=Cc1c(F)c(N2CC3CN(C)CC3C2)c(F)c2c1c(=O)c(C(=O)O)cn2C1CC1` (centres undefined): 156 to 157 °C.
Turning to `C=C(C)C(=O)OCC(COC(=O)C(=C)C)Cc1ccc(-c2ccc(OC(=O)C(=C)C)cc2)cc1`, the melting point turned out to be 49 °C.
Consider `CN1C(=O)C2CC2(c2ccc(N)cc2)C1=O` (centres undefined), for which the melting point is 137 to 139 °C.
The molecule `COc1ccc(C(=O)N2CCc3cc(S(=O)(=O)N4CC(c5ccccc5)NC4=O)ccc32)cc1` (centres undefined) had a melting point of 220 to 222 °C.
Molecule `COc1ccc(-c2c(C(=O)CC(C)C)c(CBr)nc3cc(OC)c(OC)cc23)cc1OC` yielded a melting point of 159 to 161 °C.
`CCC1C(=O)Nc2cc(N)c(N)cc21` (centres undefined) showed a melting point greater than 300 °C.
Consider `c1cc(N2CCCN(c3ccc(-c4ccc5c(c4)OCO5)cn3)CC2)ncc1-c1ccc2c(c1)OCO2`, for which the melting point is 235 to 237 °C.
In turn, `N#Cc1ccsc1N=Cc1cccs1` registered a melting point of 58 to 60 °C.
Then `Cc1ccc2c([nH]c3c(C(=O)N4CCOCC4)cccc32)c1C`, with 183 °C.
Turning to `COc1ccc(-c2cc3cc(OC)cc([N+](=O)[O-])c3o2)cc1`, the melting point was determined as 141 °C.
For `CC(=O)Oc1ccc(C(=O)O)c(C)c1`, the melting point lay within 136 to 138 °C.
The molecule `Cc1cc(CN2CCC(N(C)S(=O)(=O)c3ccc(Nc4nccc(Nc5ccc(F)c(C)c5)n4)cc3)CC2)no1` showed a melting point of 172 to 173 °C.
The molecule `Cc1noc(C)c1S(=O)(=O)Nc1ccc2c(c1)S(=O)(=O)C=C(c1c(O)c3cc(F)ccc3n(CCC3CC3)c1=O)N2` registered a melting point of 150 to 157 °C.
`O=C(O)c1cccc2c1NCCC2C(=O)O` (centres undefined) came in with a melting point of 215 to 216 °C.
The same measure for `COc1ccc2c(c1)SC(C#N)C(=O)CO2` (centres undefined): 132 to 133 °C.
With `CCN(CC)CCNC(=O)c1cccc2cc3ccc(I)cc3nc12`, the melting point was in the range of 80 to 82 °C.
Molecule `Cc1ccccc1NC(=O)Nn1c(=O)c(=O)[nH]c2ccccc21` came in with a melting point greater than 300 °C.
In turn, `CCC(O)c1cc([N+](=O)[O-])cc(Br)c1Cl` (centres undefined) gave a melting point of 110 to 113 °C.
For `COc1ccc(Cn2cc3nc(Nc4ccc(C(F)(F)F)cc4Cl)nc(OCc4ccccc4)c3n2)cc1`, the melting point is 189 to 192 °C.
In turn, `NC(CCOS(=O)(=O)c1ccccc1)C(=O)Nc1ccccc1` (centres undefined) gave a melting point of 89 °C.
In the case of `C[C@@H](NC(=O)c1ccc(-c2ccc(Cl)cc2)o1)[C@](O)(Cn1cncn1)c1ccc(F)cc1F`, the melting point was 218 to 219 °C.
Consider `Oc1cccc(OCCCC(O)(O)C(F)(F)F)c1`, for which the melting point lay within 76 to 77 °C.
Regarding `CC(=O)NC1(c2ccccc2)CCN(CCC(CN2C(=O)c3ccccc3C2=O)c2ccc(Cl)c(Cl)c2)CC1` (centres undefined), the melting point lay in the range of 83 to 85 °C.
`COc1cc(C)nc(CNC(=O)NS(=O)(=O)c2ccccc2S(=O)(=O)N(C)C)n1`: the melting point was in the range of 153 to 156 °C.
As to `O=C(Cc1ccccc1)N1C[C@@H]2SCCC(c3ccccc3)(c3ccccc3)[C@@H]2C1` (racemic), the melting point is 210 °C.
In turn, `CCCCC(=O)N(Cc1ccc(OC)cc1)c1cc(F)cc(-c2nnn[nH]2)c1` showed a melting point of 122 to 125 °C.
As for `Nc1nnc(-c2ccc3ncn(-c4ccc(OC(F)(F)F)c(Cl)c4)c3c2)o1`, the melting point was 238 to 239 °C.
Turning to `COc1cc(OC)cc(-c2ncoc2-c2ccc(OC(F)(F)F)c(O)c2)c1`, the melting point lay within 192 to 194 °C.
On to `Cc1nn(C)c(C2=NC(C)CN2)c1[N+](=O)[O-]` (centres undefined), for which the melting point was 98 to 101 °C.
